# Laboratory results published in US20100004293A1, “CRYSTALLINE FORMS OF ARYL-SUBSTITUTED PYRAZOLE-AMIDE COMPOUNDS” (Bristol-Myers Squibb Company, priority 2006, published 2010).
# What was measured:
# [1] = dehydration/heating of monohydrate H-1; format: physicochemical
# [2] = slurry conversion studies in butanol/water mixtures (N-2/H-1); format: physicochemical; conditions: N-2 versus H-1, butanol/water slurry
# From the text: (§1) The available data establish the following RH range for equilibrium N-2/H-1 conversion: 25%<RHeq<=30%. Wetcakes subjected to RH<30% are subject to dehydration, kinetic factors notwithstanding.
# [3] = aqueous solubility of crystalline forms; format: physicochemical
# [4] = solid-state storage stability (temperature/humidity, HIL, filler excipients); format: physicochemical
# From the text: (§2) Based on the equilibrium RH studies, N-2 could undergo hydrate formation during handling, formulation or storage.
# drying studies for H-1 = format: physicochemical
# From the text: as §2
# moisture sorption study = format: physicochemical
# From the text: as §1
# [5] = solvate stability by single crystal structure determination at different temperatures; format: physicochemical; conditions: solvent site fully occupied at −50° C., still 50% occupied at +82° C.
# From the text: In addition to the monohydrate, Compound I also forms solvates with a large number of organic solvents. The type 3 family of solvates (represented by an EtOAc solvate, form EA.5-3; a PrOAc solvate, form PA.5-3; a MeCN solvate, form AN-3; and a CH2CL2 solvate, DC-3) have a large hydrophobic clathrate channel (V˜215 Å^3) parallel to the crystallographic a repeat. […] The single crystal structures of an ethanol solvate (E-8), an isopropanol solvate (IPA-10), a second acetonitrile form (AN-11) and three mixed solvates (SA-9, SB-12, SC-13) with THF and water have been determined.
# [6] = monkey PK crossover study; format: in vivo; conditions: monkey PK crossover study (n=4)
# From the text: as §2
# [7] = slurry conversion studies at 25 and 50° C. and melting data (relative polymorph stability); format: physicochemical
# [8] = exposed to HIL for at least 1 week
# [9] = stored at 50° C./75% RH open and closed for at least 4 weeks
smiles,measurement,setting,value
"Cc1ccc(C(=O)NC2CC2)cc1NC(=O)c1cnn(-c2ncccc2C(F)(F)F)c1C [Form H-1, N-(5-(cyclopropylcarbamoyl)-2-methylphenyl)-5-methyl-1-(3-(trifluoromethyl)pyridin-2-yl)-1H-pyrazole-4-carboxamide]",form conversion upon heating,"[1]; 90° C., 30 m, to neat form T1H1 (N-7)",converts topotactically
same,stability under reduced humidity,[1]; reduced humidity,unstable
same,RH at which the form is the more stable form,[2],≥ 30%
same,aqueous solubility,[3],7 µg/mL
same,chemical and physical stability in the solid-state,[4]; [8],chemically and physically stable
same,chemical and physical stability in the solid-state,[4]; [9],chemically and physically stable
same,form conversion on drying,drying studies for H-1; dryer at 20-30% RH,no conversion was observed
same,form conversion on drying,drying studies for H-1; dryer maintained at 40° C. at RH 2.4-3.4%,converted to N-7
same,hygroscopicity,moisture sorption study; about 35 to about 75% RH,essentially non-hygroscopic
same,"water sorption, descending RH run",moisture sorption study; at 25% RH,partially dehydrated
Cc1ccc(C(=O)NC2CC2)cc1NC(=O)c1cnn(-c2ncccc2C(F)(F)F)c1C [Form M-4],stability of solvate,[5],relatively stable
"Cc1ccc(C(=O)NC2CC2)cc1NC(=O)c1cnn(-c2ncccc2C(F)(F)F)c1C [Form N-2, N-(5-(cyclopropylcarbamoyl)-2-methylphenyl)-5-methyl-1-(3-(trifluoromethyl)pyridin-2-yl)-1H-pyrazole-4-carboxamide]",RH at which the form is the more stable form,[2],≤ 16%
same,aqueous solubility,[3],≥ 28 µg/mL
same,solubility ratio (N-2 to H-1),"[3]; aqueous solubility, N-2 relative to H-1",~4 ×
same,chemical and physical stability in the solid-state,[4]; [8],chemically and physically stable
same,form conversion (hydrate formation) on storage,"[4]; stored 3 weeks or more at elevated temperature and humidity (e.g., 50° C./75% RH), in the presence of common filler excipients",no conversion
same,chemical and physical stability in the solid-state,[4]; [9],chemically and physically stable
same,exposure for the N-2 relative to H-1,[6],~2 fold
same,hygroscopicity,moisture sorption study; about 25 to about 75% RH at 25° C.,non-hygroscopic
same,relative stability among polymorphic (neat) forms,[7]; at 25° C. and 50° C.,most stable polymorphic (neat) form
"Cc1ccc(C(=O)NC2CC2)cc1NC(=O)c1cnn(-c2ncccc2C(F)(F)F)c1C [Form N-5, N-(5-(cyclopropylcarbamoyl)-2-methylphenyl)-5-methyl-1-(3-(trifluoromethyl)pyridin-2-yl)-1H-pyrazole-4-carboxamide]",relative stability N-5:N-6 (monotropes),[7]; N-5 versus N-6,more stable
"Cc1ccc(C(=O)NC2CC2)cc1NC(=O)c1cnn(-c2ncccc2C(F)(F)F)c1C [Form N-7, N-(5-(cyclopropylcarbamoyl)-2-methylphenyl)-5-methyl-1-(3-(trifluoromethyl)pyridin-2-yl)-1H-pyrazole-4-carboxamide]","relative stability of N-7 (monotropic with N-2, N-5 and N-6)","[7]; versus N-2, N-5 and N-6",less stable at all temperatures below 192 °C
Cc1ccc(C(=O)NC2CC2)cc1NC(=O)c1cnn(-c2ncccc2C(F)(F)F)c1C [dehydrated H-1],"water sorption, ascending RH run",moisture sorption study; between 75 and 95% RH,partially rehydrates to H-1
